Assay [1] has as its system latent HIV-1. As to the kind of experiment: Reactivation of latent HIV-1 in absence or presence of γc-cytokines. The format is cell-based. The following applies: for viral reactivation in the presence of IL-2, IL-4, and IL-15: as worded; for viral reactivation in the presence of IL-2, IL-7 and IL-5: as worded in FIG. 3 legend b37; for viral reactivation in combination with IL-4: combined with IL-4; for viral reactivation in combination with IL-9 and IL-21: combined with IL-9 or IL-21; for viral reactivation in the absence of γc-cytokines: no cytokines, p24Gag 72 hours; for viral reactivation by cytokine alone: cytokine by itself, compared with absence of cytokines. How it is done:
Latently infected cells were generated using healthy, uninfected DONOR 78 cells that were infected with DHIV virus. Reactivation was monitored by analysis of p24Gag by Flow Cytometry 72 hours after stimulation.

The subject of assay [2] is latent HIV-1. As to the kind of experiment: Reactivation of latent HIV-1 in latently infected cultured TCM (GFP / p24Gag by flow cytometry). The format is cell-based. The conditions noted are these: for activation of latent HIV-1 (viral reactivation): 72 hours after stimulation, GFP or p24Gag by flow cytometry; for ability to induce viral reactivation compared to the original hit HOBt: panel of 7 derivatives of HOBt (FIG. 2D). The text has this: A novel primary cell model for the study of HIV-1 latency was adapted so as to be suitable for high-throughput screening (HTS) of new compounds that may reactivate HIV-1 from its latency state (Bosque and Planelles, 2009; Bosque and Planelles, 2010; and patent application: Methods and compositions relating to viral latency, Planelles V, Basque A, U.S. Patent Application 2010/0291067 A1, November 2010).
To facilitate HTS, the nef gene was replaced with that encoding the green fluorescent protein (GFP). It was confirmed that deletion of nef has no effect in latency/reactivation (Bosque and Planelles, 2009) and that using GFP provides a faster, more economical, and equally sensitive, as compared to intracellular p24 detection, readout.
The reactivation experiments were modified to be performed in 96-well plates, utilizing 100,000 cells per well. After reactivation, flow cytometric analysis was performed with Becton Dickinson FACSCanto II with a High Throughput Sampler (HTS) for microtiter plates that is available through the Flow Cytometry Core Facility at the University of Utah. It takes about 30 minutes to analyze a plate, when acquiring 10,000 cells per well. Analysis for each well includes (a) green fluorescence as a direct indicator of viral reactivation; and (b) forward and side scatter as general measures of cell morphology, which is a gross indication of viability.
Latently infected cells were generated using healthy, uninfected DONOR 78 cells that were infected with DHIV virus. Reactivation was monitored by analysis of GFP by Flow Cytometry 72 hours after stimulation. Beads coated with anti-CD3/anti CD28 (CD3/CD28) were used as a positive reactivation stimulus. Reactivation was done in a 96-well plate round bottom. […] This compound is an intermediate en route to synthesis of a cyclic peptide isolated from a tunicate.
HPLC was used to generate 20 fractions based on elution time using a gradient from 10-100% acetonitrile in 0.1% formic acid using a Phenomenex Kinetic C18 50×2.10 mm column ([…], 100 A). The ability of these fractions to activate HIV-1 was tested and compared in parallel with the original hit. […] Further fractionation of C7 was performed and each fraction tested at the concentration indicated in the graph (FIG. 1D). […] Finally, HOBt was tested at different concentrations and analyzed on either Day 3, Day 5, or Day 7.

The next assay concerns memory T cells. As to the kind of experiment: T cell differentiation (CCR7 and CD27 levels). The conditions noted are these: three days post activation. The format is cell-based, human. From the text:
(§1) Memory cells were generated from 3 different donors and treated with either HOBt or anti-CD3/CD28 to analyze the effect of HOBt on T cell activation (FIG. 6A). Analysis of T cell activation was done by analyzing the upregulation of the activation markers CD25 and CD69 three days post activation. […] Analysis of T cell differentiation was done by analyzing the levels of CCR7 and CD27 three days post activation (FIG. 6B).

Assay [3] concerns memory T cells / cultured TCM. Put plainly: T cell activation (activation markers CD25 and CD69). The following applies: for increase of CD25 levels (mean intensity of fluorescence): maximum concentration used (compound), TCR engagement (αCD3/αCD28). The format is cell-based, human.
Excerpt: as §1
(§2) In order to determine whether HOAt is inducing T cell proliferation, culter TCM were incubated with HOAt in a dose dependent manner. […] It has been shown previously that both cultured TCM and ex vivo TCM express low levels of CD25 (Bosque et al. 2011). This level is increased by 37 times after TCR engagement with αCD3/αCD28, measured as mean intensity of fluorescence (values between parenthesis, FIG. 6D).
CD69 upregulation is concomitant with T cell activation.

The test system of another assay is cultured TCM. Put plainly: T cell proliferation of cultured TCM. The format is cell-based, human. The following applies: dose dependent incubation. How it is done:
as §2

The test system of assay [4] is pSTAT5. As to the kind of experiment: pSTAT5 levels 48 h after IL-2 plus derivatives, flow cytometer. In kind it is cell-based. The conditions noted are these: with IL-2, 48 h. How it is done:
Cells were treated with IL-2 and several derivatives of HOAt. Levels of pSTAT5 were measured 48 h later by flow cytometer.

Assay [5] relates to latent HIV-1. Put plainly: Blocking of viral reactivation by chemical inhibitors of known signaling pathways. The format is cell-based. The following applies: reactivation stimulus HOAt. From the text: The ability of chemical inhibitors of known signaling pathways to block viral reactivation mediated by HOAt was examined (FIG. 4A). […] Activation of JAK kinases lead to the activation of the transcription factors STATs. Specific inhibitors of STAT3 and STAT5 were thus also studied.

The test system of assay [6] is pSTAT5. As to the kind of experiment: pSTAT5 immunoprecipitation and western blot. The conditions noted are these: 30 min pretreatment, then IL-2 for 30 min. The format is cell-based. How it is done: STAT5 was immunoprecipitated with antibodies specific for the phosphorylated protein and western blot was performed against pSTAT5.
The test system of another assay is SOCS3. As to the kind of experiment: Expression levels of SOCS3, a target gene for STAT5. In kind it is cell-based, human. The conditions noted are these: IL-2 and HOAt, 24 h post-treatment. How it is done:
STAT5 is a transcriptional activator of multiple genes. To address whether HOAt will increase the transcription of any STAT5 target genes, the expression levels of SOCS3, a target gene for STAT5, were analyzed.

The subject of assay [7] is STAT5. Put plainly: Nuclear localization of STAT5. The format is cell-based, human. The following applies: IL-2 alone or in the presence of HOAt. From the text: Nuclear translocation of STAT5 is required for its transcriptional activity. […] Histone H3 and alpha Tubulin were used as controls for purity of the fractionation.
In assay [8] the test system is latent HIV-1. As to the kind of experiment: Reactivation of latent HIV-1 in cells isolated from aviremic HIV-1 patients. In kind it is cell-based. The following applies: cells of two patients suppressed with antiretroviral; versus DMSO control. The text has this:
Briefly, cells for two patients suppressed with antiretroviral were isolated and treated with either DMSO (Control), HOAt or the mitogen PHA.

For assay [9], the system named is latent HIV-1. Put plainly: Viral reactivation mediated by other stimuli (PMA, ionomycin, SAHA). In kind it is cell-based. The following applies: HOAt added to each of three stimuli.
The subject of assay [10] is STAT5. Put plainly: STAT5 phosphorylation by flow cytometry in cultured TCM. In kind it is cell-based, human.
Protocol: The levels of STAT5 phosphorylation were analyzed by flow cytometry after incubating cultured TCM with HOAt, IL-2, or a combination of both, during a 24 h period (FIG. 4B).

Entries after “also recorded” stand apart in the source; their conditions may differ.

The values that follow come from patent publication US9730928B2, “Trizol-1-OL analogs anti-retroviral latency drugs” (priority 2013, dated 2017).

For the molecule `On1nnc2ccccc21` [HOBt, 1-hydroxybenzotriazole], in the assay on latent HIV-1 [1], the “viral reactivation in the presence of IL-2, IL-4, and IL-15” value was “dramatically increase viral reactivation”; the “viral reactivation in the presence of IL-2, IL-7 and IL-5” value is on record as “increase viral reactivation”; the “viral reactivation in combination with IL-4” value is recorded as “induced significant viral reactivation; also recorded: did induce significant viral reactivation”; the “viral reactivation in combination with IL-9 and IL-21” value is “did not have an effect in viral reactivation”. Besides, the “viral reactivation in the absence of γc-cytokines” value in the assay on latent HIV-1 [1] is reported as “significantly reactivate HIV-1 latency”. Besides, the “activation of latent HIV-1 (viral reactivation)” value with latent HIV-1 [2] is listed as “activate latent HIV-1 in a dose-dependent manner; also recorded: able to reactivate HIV-1 latency; also recorded: reactivate HIV-1 latency in a dose dependent manner; also recorded: activates HIV-1 latent cells”. The “kinetics of HIV-1 latency reactivation compared with anti-CD3/CD28” value with latent HIV-1 [2] (analyzed on Day 3, Day 5, or Day 7) is on record as “slower kinetics”. Besides, in the assay with memory T cells, the “T cell differentiation (loss of CCR7 and CD27 expression)” value is given as “does not induce T cell differentiation”. In assay [3], the “increase of CD25 levels (mean intensity of fluorescence)” value stood at 1.4 times. Also, the “general T cell activation (upregulation of CD25 and CD69)” value in [3] (three days post activation, 3 donors) is reported as “does not induce general T cell activation”. The T cell proliferation entry in the assay with cultured TCM is given as “only induces some degree of T cell proliferation at the higher concentration tested”. In addition, in the assay on pSTAT5 [4], the “maintenance of pSTAT5 levels” value is “maintain pSTAT5 levels in a dose dependent manner”.
Regarding `O=C(N/N=C/c1coc2ccccc2c1=O)c1cccnc1` [STAT5 inhibitor], in the assay on latent HIV-1 [5], the “effect on viral reactivation induced by HOAt” value is “completely abrogates viral reactivation; also recorded: completely prevent activation of latent HIV-1 by HOAt”.
With `O=c1c2ccccc2nnn1O` [HO-DhBt, 3-hydroxybenzo[d][1,2,3]triazin-4-(3H)-one], in the assay on latent HIV-1 [2], the “ability to induce viral reactivation compared to the original hit HOBt” value is “able to induce viral reactivation in a dose dependent manner and with increased efficiency; also recorded: increased ability to induce viral reactivation in a dose dependent manner”. For the same molecule, in the assay with pSTAT5 [4], the “maintenance of pSTAT5 levels” value is on record as “maintain pSTAT5 levels in a dose dependent manner”.
As for IL-21: γc-cytokine, the “viral reactivation by cytokine alone” value with latent HIV-1 [1] was “did not have an effect in viral reactivation; also recorded: no effect”.
The same measure, in the same setting: the same measure for IL-9: γc-cytokine: “did not have an effect in viral reactivation; also recorded: no effect”.
Turning to `On1nnc2cccnc21` [HOAt, 1-hydroxy-7-azabenzotriazole], the “levels of pSTAT5 in the inputs” value in the assay on pSTAT5 [6] was “increases the levels of pSTAT5”. Besides, in the assay with latent HIV-1 [1], the “viral reactivation in the presence of IL-2, IL-4, and IL-15” value is on record as “dramatically increase viral reactivation”; the “viral reactivation in the presence of IL-2, IL-7 and IL-5” value is “increase viral reactivation”; the “viral reactivation in combination with IL-4” value is “induced significant viral reactivation; also recorded: did induce significant viral reactivation”; the “viral reactivation in combination with IL-9 and IL-21” value is given as “did not have an effect in viral reactivation”. In addition, in the assay on latent HIV-1 [1], the “viral reactivation in the absence of γc-cytokines” value was “significantly reactivate HIV-1 latency”. For the same molecule, in the assay on SOCS3, the “levels (transcription) of SOCS3” value was “increase the levels of SOCS3; also recorded: increases the transcription of SOC3S”. Also, in the assay with latent HIV-1 [2], the “activation of latent HIV-1 (viral reactivation)” value is recorded as “able to reactivate HIV-1 latency; also recorded: activates HIV-1 latent cells; also recorded: activate latent HIV-1; also recorded: reactivate HIV-1 latency in a dose dependent manner” and the “ability to induce viral reactivation compared to the original hit HOBt” value was “more potent analog than the original hit; also recorded: increased activity compared to HOBt”. Besides, in the assay on STAT5 [7], the “pSTAT5 and STAT5 levels in the nucleus” value is on record as “increased in the nucleus; also recorded: increases the nuclear localization of STAT5”. In addition, the “regrowth of latent viruses in patient cells in vitro” value with latent HIV-1 [8] was “can induce regrowth of latent viruses in both patients”. Besides, in the assay with latent HIV-1 [9], the “viral reactivation mediated by PMA, ionomycin and SAHA” value is “able to increase viral reactivation mediated by these three stimuli; also recorded: increases viral reactivation”. In [3] (CD69 upregulation), the “levels of T cell activation (CD69) compared with αCD3/αCD28” value is listed as “slightly increases the levels of T cell activation”. In addition, the “increase of CD25 levels (mean intensity of fluorescence)” value in [3] was determined as 1.4 times. For the same molecule, in the assay with cultured TCM, the T cell proliferation entry was “only induces some degree of cell proliferation at the higher concentration tested”. Moreover, the “STAT5 phosphorylation, agent alone over untreated cells” value in the assay with STAT5 [10] (HOAt alone) was “able to induce an increase in STAT5 phosphorylation over untreated cells”. For the same molecule, in the assay on STAT5 [10] (IL-2 and HOAt), the “STAT5 phosphorylation, combination with IL-2” value is on record as “drastic increase in STAT5 phosphorylation”. In addition, in the assay on STAT5 [10] (IL-2 and HOAt, 24 hrs), the “STAT5 phosphorylation after 24 hrs, combination with IL-2” value is “do not significantly decrease”. Also, in the assay with pSTAT5 [4], the “maintenance of pSTAT5 levels” value is reported as “maintain pSTAT5 levels in a dose dependent manner”.
Consider `Cc1ccc2nc(NCCN)c3ncc(C)n3c2c1` [BMS345541], for which the “effect on viral reactivation induced by HOAt” value in the assay with latent HIV-1 [5] is given as “did not have a significant effect”.

B1: IL-7: γc-cytokine (protein, UniProt P13232 26-177, looked up)
Interleukin-7: DCDIEGKDGKQYESVLMVSIDQLLDSMKEIGSNCLNNEFNFFKRHICDANKEGMFLFRAARKLRQFLKMNSTGDFDLHLLKVSEGTTILLNCTGQVKGRKPAALGEAQPTKSLEENKSLKEQKKLNDLCFLKRLLQEIKTCWNKILMGTKEH
B1: in the assay on latent HIV-1 [1], the “viral reactivation by cytokine alone” value is listed as “trend towards increasing viral reactivation”.

B2: IL-4: γc-cytokine (protein, UniProt P05112 25-153, looked up)
Interleukin-4: HKCDITLQEIIKTLNSLTEQKTLCTELTVTDIFAASKNTTEKETFCRAATVLRQFYSHHEKDTRCLGATAQQFHRHKQLIRFLKRLDRNLWGLAGLNSCPVKEANQSTLENFLERLKTIMREKYSKCSS
Take B2: the “viral reactivation by cytokine alone” value with latent HIV-1 [1] is reported as “not able to induce significant viral reactivation by itself; also recorded: did not induce viral reactivation by itself”.
